The results in this text go back to patent US10273313B2, “Multimeric mannosides, a process for preparing the same and their uses as a drug” (CENTRE NATIONAL DE LA RECHERCHE SCIENTIFIQUE, priority 2012, dated 2019).

For data set [1], the system named is type-1 piliated clinical E. coli isolate UTI89. Put plainly: Haemagglutination inhibition assay (HIA), guinea pig erythrocytes. It is filed as cell-based, Escherichia coli. Particulars: for MIC: read-out: Minimal inhibitory concentration (MIC) on haemagglutination. How it is done: Haemagglutination is observed as the red blood cells being held in suspension through the formation of a space-filling cross-linked network with the fimbriated bacteria.
The UIT89 clinical isolate was grown statically 37° C. for 48 hours in LB medium and analysed for haemagglutination of guinea pig red blood cells. Both bacteria and red blood cells (RBCs) were washed 3 times in ice-cold PBS (17 mM K/NaH2PO4, 150 mM NaCl). PBS was used for all dilutions. 96-well round-bottom microtiter plates were used for the dilutions. The titer for agglutination was determined in a 2-fold dilution series in PBS of the bacteria in a volume of 25 μL. Well 1 is a negative control without bacteria but 25 μL PBS. 25 μL PBS and 50 μL 5% RBCs were added to a final 100 μL volume. Upon 1 hour at 4° C., the titer was determined as the lowest concentration of bacteria that led to haemagglutination.
A bacterial concentration of twice the determined haemagglutination titer was kept constant in the haemagglutination inhibition assays. First, a 2-fold dilution series of the inhibitory compounds was performed in 25 μL PBS. Instead, in well 1 only 25 μL PBS was added as a negative control. 25 μL of the bacterial solution and 50 μl of 5% red blood cells were added to reach a final volume of 100 μL.

Data set [2] deals with primary human peripheral venous blood monocyte-derived macrophages. Put plainly: Macrophage-mediated phagocytosis of aged PMN cells. Particulars: 10 nM. It is filed as cell-based. From the text:
To estimate the influence of mannose-based inhibitors on possible inhibition of phagocytosis we used primary human peripheral venous blood monocyte-derived macrophages and estimated their ability to phagocyte autologous and allogenic human blood-derived PMN cells, as described by us previous (Bilyy, R. O. et al. (2012) J Biol Chem 287, 496-503).
Primary human PMN and MoMa from healthy volunteers were used. Monocytes were isolated from peripheral blood by LymphoPrep® gradient according to manufacture's recommendations for isolation of PBMC fraction. Plastic-attached cells of PBMC fraction were then cultured for 7 days in the presence of GM-CSF (100 U/ml) and autologous serum (added at days 1, 3 and 5) to generate MoMa. After 7 days of differentiation, the MoMa population was tested. They typically contain >95% CD11b+ cells, >90% CD14+ cells and >85% CD89+ cells. Phagocytosis was assessed by pre-incubation of PMN (freshly isolated or aged for 24 h) with mannose-based inhibitor for 30 min at 37° C. at Ringer buffer. Cells were thoroughly washed three times with Ringer solution and incubated with human MoMa for 2 hours. Uningested PMN were analyzed by flow cytometry (for this reason cells were pre-stained with CFSE (Rodel, F. et al. (2005) Strahlentherapie and Onkologie: Organ der Deutschen Rontgengesellschaft . . . [et al] 181, 456-462)) or in the hemocytometric chamber using Zeiss AxioImager A1 microscope. The percentage of prey cells that had been bound to or taken up by MoMa (% of phagocytosis) was calculated.

The target of another data set is FimH (Escherichia coli, UniProt P08191). It is filed as binding. Here is the method: Journal of the American Society for Mass Spectrometry, 2009. […] Tested compounds were added to wells following with FimH treatment.
Plates were coated with 100 μl of 10 mg/ml solution of RNAse-B in 100 mM carbonate/bicarbonate buffer pH 9.6. […] 2 h. Then washed three times with 10 mM PBS containing 0.05% Tween-20. […] Wells were washed three times with 10 mM PBS+0.05% Tween-20. 100 μl of anti-body conjugated to horseradish peroxidase (1:5000) was added in buffer and incubated for 1 h at room temperature. Then washed three times with 10 mM PBS+0.05% Tween-20. Added 100 μl of TMB and incubated in dark for 2-5 min. The reaction was stopped with 100 μl/well 1N sulfuric acid. Plate absorbance was analyzed at 450 nm using microplate reader.

The subject of another data set is bladder cell line 5637. In words: Anti-adhesives for bacterial bladder cell binding. It is filed as cell-based. Particulars: ten-fold dilution series. Here is the method: The anti-adhesive capacities of the HM-derivatized cyclodextrins 1-4 were tested in vitro on the bladder cell line 5637, in a procedure analogous as previously described (Wellens, A. et al., PLoS ONE 3: e2040 (2008)). The CD conjugates 1-4 were diluted in a ten-fold series. The minimum inhibitory concentrations (MIC) indicate the concentrations of sugars at which we see some inhibition of binding of FimH to the bladder cells, they do however not indicate complete inhibition. MIC values for the CD-conjugates 1-4 followed a similar trend as the inhibitory concentrations recorded in HIA.
The anti-adhesive capacities of the n-heptyl α-D-mannoside-derivatized cyclodextrins 1-4 were tested in vitro on the bladder cell line 5637, in a procedure analogous to as described in (Wellens, A. et al., PLoS ONE 3: e2040 (2008)). The ligands have been diluted 10-fold and this is also the resolution limit of these tests.

Values after ≈ are worked out from the molar mass of the structure shown. Where two headings read alike, the source gives them in different places.

Sequence of FimH (P08191 22-300): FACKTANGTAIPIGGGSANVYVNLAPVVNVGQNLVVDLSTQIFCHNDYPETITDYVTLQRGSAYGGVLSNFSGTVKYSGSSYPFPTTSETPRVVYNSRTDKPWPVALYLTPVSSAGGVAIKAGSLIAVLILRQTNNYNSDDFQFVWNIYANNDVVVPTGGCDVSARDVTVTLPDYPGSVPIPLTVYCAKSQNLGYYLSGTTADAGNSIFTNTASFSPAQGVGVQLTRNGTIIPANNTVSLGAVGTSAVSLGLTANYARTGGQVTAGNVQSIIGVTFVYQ

On to `OCC1OC(OCCCCCCCOCc2cn(CC3OC4OC5C(Cn6cc(COCCCCCCCOC7OC(CO)C(O)C(O)C7O)nn6)OC(OC6C(Cn7cc(COCCCCCCCOC8OC(CO)C(O)C(O)C8O)nn7)OC(OC7C(Cn8cc(COCCCCCCCOC9OC(CO)C(O)C(O)C9O)nn8)OC(OC8C(Cn9cc(COCCCCCCCOC%10OC(CO)C(O)C(O)C%10O)nn9)OC(OC9C(Cn%10cc(COCCCCCCCOC%11OC(CO)C(O)C(O)C%11O)nn%10)OC(OC%10C(Cn%11cc(COCCCCCCCOC%12OC(CO)C(O)C(O)C%12O)nn%11)OC(OC3C(O)C4O)C(O)C%10O)C(O)C9O)C(O)C8O)C(O)C7O)C(O)C6O)C(O)C5O)nn2)C(O)C(O)C1O` (stereo not shown) [Compound 2], for which the MIC in data set [1] (Escherichia coli, UTI89 1.2 10^9 CFU/ml) came out at 1.56 µM (≈ 5.67 µg/mL); in data set [1] (Escherichia coli, UTI89 1.4 10^8 CFU/ml), 0.39 µM (≈ 1.42 µg/mL); in data set [1] (Escherichia coli, UTI89 7 10^7 CFU/ml) it was 0.24 µM (≈ 0.873 µg/mL). In addition, the “Relative inhibitory potency (RIP), reference 1” value is above 128 in data set [1] (RIP (UTI89 1.2 10^9 CFU/ml)), 256 in data set [1] (RIP (UTI89 1.4 10^8 CFU/ml)) and 263 in data set [1] (RIP (UTI89 7 10^7 CFU/ml)). Further, the “Relative inhibitory potency (RIP), reference HM” value was determined as 8 in data set [1] (RIP (UTI89 1.2 10^9 CFU/ml)), 3 in data set [1] (RIP (UTI89 1.4 10^8 CFU/ml)) and 4 in data set [1] (RIP (UTI89 7 10^7 CFU/ml)). For the same compound, the Phagocytosis rate result in data set [2] is “no phagocytosis decrease”. For the same compound, the “Inhibition of oligomannoside binding (FIG. 17)” value on FimH (compounds 1, 2, 6 and HM compared) is “most potent inhibition”. Besides, the “MIC, anti-adhesive potency on bladder cell line 5637” value in the data set on bladder cell line 5637 came out at 0.4 µM (≈ 1.45 µg/mL).

`CCCCCCCO[C@H]1O[C@H](CO)[C@@H](O)[C@H](O)[C@@H]1O` [HM, Heptylmannoside, reference compound]: the “Relative inhibitory potency (RIP), reference 1” value in data set [1] (RIP (UTI89 1.2 10^9 CFU/ml)) is above 16; in data set [1] (RIP (UTI89 1.4 10^8 CFU/ml)), 67; in data set [1] (RIP (UTI89 7 10^7 CFU/ml)), 64. Also, the “Relative inhibitory potency (RIP), reference 3” value in data set [1] (RIP (UTI89 1.2 10^9 CFU/ml)) is recorded as 16; in data set [1] (RIP (UTI89 1.4 10^8 CFU/ml)) it was 33; in data set [1] (RIP (UTI89 7 10^7 CFU/ml)) it was 32. The MIC in data set [1] (UTI89 1.2 10^9 CFU/ml) was 12.5 µM (≈ 3.48 µg/mL); in data set [1] (UTI89 1.4 10^8 CFU/ml), 1.50 µM (≈ 0.418 µg/mL); in data set [1] (UTI89 7 10^7 CFU/ml) it was 0.98 µM (≈ 0.273 µg/mL). In addition, in data set [2], the Phagocytosis rate result was “significantly decreased phagocytosis rate”. Besides, the “Inhibition of FimH binding compared to FimH alone” value on FimH (5 nM) is “significantly inhibited FimH binding”. On FimH (HM after 1 month storage in dissolved form vs immediately dissolved), the “Stability of activity in dissolved form” value is on record as “loosing activity in dissolved form”. The “MIC, anti-adhesive potency on bladder cell line 5637” value in the data set on bladder cell line 5637 was 4 µM (≈ 1.11 µg/mL).
